# What was measured:
# Assay type in all cases: cell-based
# [1] = test system: Human T lymphocytic leukemia cell line (Jurkat); experiment: Inhibition of Jurkat cell proliferation (CellTiter luminescent viability); conditions: Homo sapiens, Table IF3, AR inhibitor-based, 96 hours; for inhibition at 0.01 µM: 10 nM, read-out: Inhibition Rate at 10 nM (%); for inhibition at 0.5 µM: 500 nM, read-out: Inhibition Rate at 500 nM (%)
# Procedure: The tumor cells used herein were cultured in a cell culture medium listed in table 3 at 37 °C in an incubator with 5% CO2. Prior to experimentation, all cell lines used were correctly identified by STR profiling, and tested negative for mycoplasma contamination using a mycoplasma detection kit through routine screenings.
# The IC50 values of the compounds of the present disclosure (including the compounds in Table 1, Table 2, and Examples 1-468) were determined using the CellTiter-Meiluncell Luminescent Cell Viability Assay Kit from Dalian Meilun Biotech Co., Ltd. The detailed procedure is as follows: Tumor cells were seeded in 96-well cell culture plates at the densities specified in Table 4. On the following day, the test compounds of the present disclosure were subjected to serial dilution. The dilution can be performed according to one of the following two methods: • (1) The first dilution method: The test compounds of the present disclosure (including the compounds in Table 1, Table 2, and Examples 1-468) were subjected to 5-fold serial dilutions starting from a highest concentration of 2000 μM, resulting in a total of 9 concentrations from high to low (2000, 400, 80, 16, 3.2, 0.64, 0.128, 0.0256, 0.00512 μM). Subsequently, 0.5 μL of the test compound dilution was transferred into the 96-well plate containing the cells, with each well containing 100 μL of cell culture medium. […] Into the 96-well plate, the diluted test compounds and corresponding detection reagents were added, resulting in final test compound concentrations of 500 nM and 10 nM, respectively. The experimental procedure is described below using the diluted 2 μM test compound as an example.
# 0.5 μL of the aforementioned diluted compound of the present disclosure (including the compounds in Table 1, Table 2, and Examples 1-468) was added to the seeded cells in 100 μL of medium, yielding a final test compound concentration of 10 nM. After the cells were treated with the compounds of the present disclosure for a specified period, the cell viability assay reagent was added to the culture medium according to the kit's instructions to determine cell viability. […] All controls were treated using the same procedure as the compounds of the present disclosure. The growth inhibition curves for the compounds of the present disclosure were plotted using Prism GraphPad software, and the IC50 values were calculated therefrom.
# [2] = test system: Human acute lymphocytic leukemia T lymphocytes cell line (CCRF-CEM); experiment: Inhibition of CCRF-CEM cell proliferation (CellTiter luminescent viability); conditions: Table IF2, AR inhibitor-based; for inhibition at 0.01 µM / inhibition at 0.5 µM: Homo sapiens, 96 h; for inhibition at 0.01 µM: read-out: Inhibition Rate at 10 nM (%); for inhibition at 0.5 µM: 500 nM, read-out: Inhibition Rate at 500 nM (%)
# [3] = test system: Human diffuse large B-cell lymphoma cell line (TMD8); experiment: Inhibition of TMD8 cell proliferation (CellTiter luminescent viability); conditions: Table IF1, AR inhibitor-based; for inhibition at 0.01 µM / inhibition at 0.5 µM: Homo sapiens, TMD8, 96 h; for inhibition at 0.01 µM: read-out: Inhibition Rate at 10 nM (%); for inhibition at 0.5 µM: TMD8, 500 nM, read-out: Inhibition Rate at 500 nM (%)
# AR = molecular target: T1, AR (Homo sapiens, UniProt P10275); experiment: Western blot degradation of AR; conditions: LnCap Cell; 24 hours
# T1 construct: expression of target proteins in cells; endogenous in cells
# T1 sequence (P10275 1-920): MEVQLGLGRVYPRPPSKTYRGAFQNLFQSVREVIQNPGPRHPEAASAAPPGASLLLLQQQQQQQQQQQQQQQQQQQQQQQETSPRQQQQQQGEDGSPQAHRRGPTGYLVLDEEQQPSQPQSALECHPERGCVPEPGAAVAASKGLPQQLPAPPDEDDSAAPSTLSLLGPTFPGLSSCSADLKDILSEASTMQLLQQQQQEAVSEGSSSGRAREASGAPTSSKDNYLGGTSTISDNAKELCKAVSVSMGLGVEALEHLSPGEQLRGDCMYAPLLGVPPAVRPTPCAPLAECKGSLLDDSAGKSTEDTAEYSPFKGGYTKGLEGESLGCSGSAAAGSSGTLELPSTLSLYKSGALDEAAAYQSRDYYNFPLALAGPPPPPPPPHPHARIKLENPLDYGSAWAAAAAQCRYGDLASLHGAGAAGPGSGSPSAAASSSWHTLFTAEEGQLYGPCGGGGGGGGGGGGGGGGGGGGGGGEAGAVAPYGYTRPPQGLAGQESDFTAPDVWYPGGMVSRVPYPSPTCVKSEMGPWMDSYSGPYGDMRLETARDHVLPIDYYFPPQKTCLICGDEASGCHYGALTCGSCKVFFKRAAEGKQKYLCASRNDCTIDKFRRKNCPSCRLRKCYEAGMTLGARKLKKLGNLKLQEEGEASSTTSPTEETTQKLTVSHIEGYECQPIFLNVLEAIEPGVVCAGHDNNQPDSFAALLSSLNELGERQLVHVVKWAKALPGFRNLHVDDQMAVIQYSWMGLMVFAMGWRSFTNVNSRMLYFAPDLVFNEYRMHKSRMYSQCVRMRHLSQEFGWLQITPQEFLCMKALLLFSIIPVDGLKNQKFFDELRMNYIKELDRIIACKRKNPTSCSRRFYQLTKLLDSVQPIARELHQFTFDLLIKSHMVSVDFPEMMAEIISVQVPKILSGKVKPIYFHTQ
# Procedure: Conventional Western blot assay was performed to evaluate the effects of the compounds of the present disclosure on the expression of target proteins in cells.
# (1) Cell Seeding and Protein Harvesting: The selected cells were processed according to the cell seeding procedure and protein harvesting procedure in Table II-2.
# (2) To the collected supernatant, 5×SDS sample loading buffer was added, followed by denaturation at 95 °C for 5 minutes. The denatured samples were then separated by SDS-PAGE electrophoresis on a polyacrylamide gel. Proteins were transferred to a nitrocellulose membrane (0.45 μm NC membrane), blocked with blocking buffer at room temperature for 1 hour, and subjected to antibody incubation and development procedures according to the antibody manufacturer's instructions (Cell Signaling Technology).
# Half-Maximal Degradation Concentration value (the drug concentration required for degrading proteins by 50%, abbreviated as DC50) reads method: comparing the grayscale values of Western blot bands from drug-treated samples with those from blank DMSO-treated controls, and identifying the drug concentration range at which the grayscale value is half that of the DMSO-treated control bands.
# DC50 values can be calculated using ImageJ software to measure grayscale values of Western blot bands from drug-treated samples. The concentration-response curve is fitted to estimate the drug concentration corresponding to half the grayscale value.
# Target protein remaining (%) refers to the percentage of target protein remaining in cells after treatment with protein degrader compounds.
# Calculation method for target protein remaining (%): Use ImageJ software to measure grayscale values of Western blot bands from drug (protein degrader)-treated samples. The grayscale value of drug-treated bands is divided by that of internal control protein bands, and the resulting quotient is normalized to obtain the relative percentage of remaining target protein after protein degrader treatment.
# Target protein degradation rate (%)=1−target protein remaining (%).
Structure (SMILES),Degradation of substrate protein AR (substrate protein remaining %) (AR),inhibition at 0.01 µM [1],inhibition at 0.5 µM [1],inhibition at 0.01 µM ([2]; 10 nM),inhibition at 0.5 µM [2],"inhibition at 0.01 µM ([3]; TMD8, 10 nM)",inhibition at 0.5 µM [3],"Inhibition Rate at 10 nM (%) ([2]; 10 nM, 96 hours, 0.01 µM)","Inhibition Rate at 10 nM (%) ([3]; TMD8, 10 nM, 96 hours, 0.01 µM)"
"N#Cc1ccc(O[C@H]2CC[C@H](NC(=O)c3ccc(N4CCC(CN5CC6CCC(C5)N6c5ccc6c(c5)C(=O)N(N5CCC(=O)NC5=O)C6=O)CC4)nn3)CC2)cc1Cl [GT-05229, N-((1r,4r)-4-(3-chloro-4-cyanophenoxy)cyclohexyl)-6-(4-((8-(2-(2,4-dioxotetrahydropyrimidin-1(2H)-yl)-1,3-dioxoisoindolin-5-yl)-3,8-diazabicyclo[3.2.1]octan-3-yl)methyl)piperidin-1-yl)pyridazine-3-carboxamide]",A (0%≤substrate protein remaining %≤80%),20 to 30%,40 to 60%,30 to 40%,60 to 80%,40 to 60%,60 to 80%,,
"CC1(C)[C@H](NC(=O)c2ccc(N3CCC(CN4CCN(c5ccc6c(c5)C(=O)N(N5CCC(=O)NC5=O)C6=O)CC4)CC3)nc2)C(C)(C)[C@H]1Oc1ccc(C#N)c(Cl)c1 [GT-05301, N-((1r,3r)-3-(3-chloro-4-cyanophenoxy)-2,2,4,4-tetramethylcyclobutyl)-6-(4-((4-(2-(2,4-dioxotetrahydropyrimidin-1(2H)-yl)-1,3-dioxoisoindolin-5-yl)piperazin-1-yl)methyl)piperidin-1-yl)nicotinamide]",A (0%≤substrate protein remaining %≤80%),10 to 15%,20 to 30%,,30 to 40%,,40 to 60%,IFb5 (15% ≤ IFb5 < 20%),IFa6 (25% ≤ IFa6 < 30%)
"CC1(C)[C@H](NC(=O)c2ccc(N3CCC(CN4CC5CCC(C4)N5c4ccc5c(c4)C(=O)N(N4CCC(=O)NC4=O)C5=O)CC3)nc2)C(C)(C)[C@H]1Oc1ccc(C#N)c(Cl)c1 [GT-05305, N-((1r,3r)-3-(3-chloro-4-cyanophenoxy)-2,2,4,4-tetramethylcyclobutyl)-6-(4-((8-(2-(2,4-dioxotetrahydropyrimidin-1(2H)-yl)-1,3-dioxoisoindolin-5-yl)-3,8-diazabicyclo[3.2.1]octan-3-yl)methyl)piperidin-1-yl)nicotinamide]",A (0%≤substrate protein remaining %≤80%),10 to 15%,40 to 60%,20 to 30%,40 to 60%,25 to 30%,40 to 60%,,
"N#Cc1ccc(O[C@H]2CC[C@H](NC(=O)c3ccc(N4CCC(CN5CCN(C6CCN(c7ccc8c(c7)C(=O)N(N7CCC(=O)NC7=O)C8=O)CC6)CC5)CC4)nn3)CC2)cc1Cl [GT-05829, N-((1r,4r)-4-(3-chloro-4-cyanophenoxy)cyclohexyl)-6-(4-((4-(1-(2-(2,4-dioxotetrahydropyrimidin-1(2H)-yl)-1,3-dioxoisoindolin-5-yl)piperidin-4-yl)piperazin-1-yl)methyl)piperidin-1-yl)pyridazine-3-carboxamide]",A (0%≤substrate protein remaining %≤80%),,,15 to 20%,20 to 30%,10 to 15%,35 to 40%,,
"Cn1cc(-c2cc(S(C)(=O)=O)ccc2OCc2ccc3c(c2)CN(N2CCC(=O)NC2=O)C3=O)c2cc[nH]c2c1=O [GT-06413, 1-(5-((2-(6-methyl-7-oxo-6,7-dihydro-1H-pyrrolo[2,3-c]pyridin-4-yl)-4-(methylsulfonyl)phenoxy)methyl)-1-oxoisoindolin-2-yl)dihydropyrimidine-2,4 (1H,3H)-dione]",A (0%≤substrate protein remaining %≤80%),,,,,,,,

# The next lines start with results.
Degradation of substrate protein AR (substrate protein remaining %) (AR),Structure (SMILES),inhibition at 0.01 µM [1],inhibition at 0.5 µM [1],inhibition at 0.01 µM ([2]; 10 nM),inhibition at 0.5 µM [2],"inhibition at 0.01 µM ([3]; TMD8, 10 nM)",inhibition at 0.5 µM [3],"Inhibition Rate at 10 nM (%) ([2]; 10 nM, 96 hours, 0.01 µM)","Inhibition Rate at 10 nM (%) ([3]; TMD8, 10 nM, 96 hours, 0.01 µM)"
A (0%≤substrate protein remaining %≤80%),"Cc1ccc(-c2c(C)noc2C)cc1N(CC1CCN(Cc2ccc3c(c2)C(=O)N(N2CCC(=O)NC2=O)C3=O)CC1)c1ccc(C2(C#N)CC2)cc1 [GT-06410, 1-(4-((5-(3,5-dimethylisoxazol-4-yl)-2-methylphenyl)((1-((2-(2,4-dioxotetrahydropyrimidin-1(2H)-yl)-1,3-dioxoisoindolin-5-yl)methyl)piperidin-4-yl)methyl)amino)phenyl)cyclopropane-1-carbonitrile]",,,,,,,,
A (0%≤substrate protein remaining %≤80%),"Cc1ccc(-c2c(C)noc2C)cc1N(CC1CCN(CC2CCN(c3ccc4c(c3)C(=O)N(N3CCC(=O)NC3=O)C4=O)CC2)CC1)c1ccc(C2(C#N)CC2)cc1 [GT-06418, 1-(4-((5-(3,5-dimethylisoxazol-4-yl)-2-methylphenyl)((1-((1-(2-(2,4-dioxotetrahydropyrimidin-1(2H)-yl)-1,3-dioxoisoindolin-5-yl)piperidin-4-yl)methyl)piperidin-4-yl)methyl)amino)phenyl)cyclopropane-1-carbonitrile]",,,,,,,,
